Where a SMILES comes first, the peptide text is derived from it. Bridges are numbered along the chain shown (N, C = ends). Where no end group is shown, it is not given here.
Experiments:
Serum stability = assay type: in vitro ADME; conditions: 300 μM stock diluted 10 times in 100% human serum (male AB plasma), 37°C, analytical HPLC, 215 nm, triplicate; for stability in human serum (in words): 0-24 h
Procedure: The stability of peptides in human serum was examined using a protocol reported previously (Chan et al., [2011]). Briefly, stock solutions of peptides (300 μM) were diluted 10 times with pre-warmed 100% human serum isolated from male AB plasma (Sigma-Aldrich) and incubated at 37°C for 0, 1, 2, 3, 5, 8, 12 and 24 h. Controls with peptides in PBS were included. The reaction was stopped by denaturing the serum proteins with urea at a final concentration of 3 M at 4°C for 10 min, followed by precipitation of serum proteins with trichloroacetic acid at a final concentration of 7% (v/v) (4°C, 10 min) and centrifugation (17,000 g, 10 min). The supernatant of each sample was recovered and run on an analytical column using a linear gradient of 5–30% solvent B (acetonitrile 90% (v/v) with 0.045% (v/v) TFA in H2O) in solvent A (0.05% (v/v) TFA in H2O) over 25 min at a flow rate of 0.3 mL/min with monitoring at 215 nm. The elution profile of each peptide was identified by the PBS sample from 0 time point. The percentage of peptide remaining in serum-treated samples was determined by comparing the height of the peptide peak obtained at each time point with that of the peptide peak obtained at 0 time point. Each experiment was done in triplicate.
Figure 4 Serum-stability of tested peptides. Percentage of peptide remaining upon incubation with human serum. The portion of serum-treated peptide remaining was determined by calculating the height of the respective elution peak in analytical-HPLC and comparing it with control without incubation. Data points are means ± SD of three experiments.

HeLa cells = assay: Internalization of Alexa fluor 488-labeled peptides into HeLa cells (flow cytometry); assay type: cell-based, human; conditions: 8 μM Alexa fluor 488-labeled peptide, 1 h, 37°C, medium without serum, flow cytometry, 10,000 cells, mean ± SD of three independent experiments

For `CC[C@H](C)[C@@H]1NC(=O)[C@@H]2CSSC[C@@H]3NC(=O)[C@H](C(C)C)NC(=O)CNC(=O)CNC(=O)[C@H](CC(=O)O)NC(=O)[C@H](CO)NC(=O)CNC(=O)[C@H](CO)NC(=O)CNC(=O)[C@@H]4CSSC[C@H](NC(=O)[C@H](CC(=O)O)NC(=O)[C@H](CO)NC(=O)[C@H](CC(=O)O)NC(=O)[C@H](CCCNC(=N)N)NC(=O)[C@H](CCCNC(=N)N)NC(=O)[C@H](CSSC[C@H](NC1=O)C(=O)N[C@@H](CCCCN)C(=O)NCC(=O)N[C@@H](CC(N)=O)C(=O)NCC(=O)N[C@@H](Cc1ccc(O)cc1)C(=O)N4)NC(=O)[C@H](CCCNC(=N)N)NC(=O)[C@H](CCCNC(=N)N)NC(=O)[C@H](CCCNC(=N)N)NC(=O)[C@H](C)NC(=O)[C@H](CCCNC(=N)N)NC(=O)[C@H](CCCNC(=N)N)NC(=O)CNC(=O)[C@H](Cc1ccc(O)cc1)NC3=O)C(=O)N1CCC[C@H]1C(=O)NCC(=O)N[C@@H](C)C(=O)N2` [MCo-CTP] (cyclo(ACICKGNGYCGSGSDGGVCYGRRARRRCRRDSDCPG); disulfide 2-19, 4-28, 10-34), the “stability in human serum (in words)” value (Serum stability) was “stable in human serum” and the remaining at 12 h, 30 µM (Serum stability; 12 h, peak height vs 0 time point, read-out: peptide remaining intact after 12 h incubation in serum) was over 60%.

For `CC[C@H](C)[C@@H]1NC(=O)[C@@H]2CSSC[C@@H]3NC(=O)[C@H](C(C)C)NC(=O)CNC(=O)CNC(=O)[C@H](CC(=O)O)NC(=O)[C@H](CO)NC(=O)CNC(=O)[C@H](CO)NC(=O)CNC(=O)[C@@H]4CSSC[C@H](NC(=O)[C@H](CC(=O)O)NC(=O)[C@H](CO)NC(=O)[C@H](CC(=O)O)NC(=O)[C@H](CCCNC(=N)N)NC(=O)[C@H](CCCNC(=N)N)NC(=O)[C@H](CSSC[C@H](NC1=O)C(=O)N[C@@H](CCCCN)C(=O)NCC(=O)N[C@@H](CC(N)=O)C(=O)NCC(=O)N[C@@H](Cc1ccc(O)cc1)C(=O)N4)NC(=O)[C@H](CCCNC(=N)N)NC(=O)[C@H](CCCNC(=N)N)NC(=O)[C@H](CC(C)C)NC(=O)[C@H]([C@@H](C)CC)NC(=O)[C@H](CCCNC(=N)N)NC(=O)[C@@H]1CCCN1C3=O)C(=O)N1CCC[C@H]1C(=O)NCC(=O)N[C@@H](C)C(=O)N2` [MCo-RM1] (cyclo(ACICKGNGYCGSGSDGGVCPRILRRCRRDSDCPG); disulfide 2-19, 4-26, 10-32), the “stability in human serum (in words)” value (Serum stability) was “stable in human serum”.

With “NH2-YGRKKRRQRRRPPQG-COOH [TAT, gold standard linear cell-penetrating peptide]” the “Fluorescence signal of HeLa cells, before trypan blue (mean fluorescence emission normalized to TAT after trypan blue)” value (HeLa cells; ex 488 nm / em 530/30 nm) was 1.08 ± 0.07 and the “Fluorescence signal of HeLa cells, after trypan blue (mean fluorescence emission normalized to TAT after trypan blue)” value (HeLa cells; trypan blue 160 μg/mL) was 1.00 ± 0.17.

For YGRKARRRRRR [CTP512], the “time to full degradation by proteases in serum” value (Serum stability; peak height vs 0 time point) was at most 1 h.
